Measurements taken from patent US10183940B2, “Aryl and heteroaryl-fused tetrahydro-1,4-oxazepine amides as somatostatin receptor subtype 4 (SSTR4) agonists” (Boehringer Ingelheim International GmbH, priority 2014, dated 2019).

What was measured:
[1] = molecular target: human Somatostatin 4 receptor (SSTR4) (Homo sapiens (Human), UniProt P31391); assay: cAMP assay with human Somatostatin 4 receptor; type: cell-based; settings: hSSTR4 expressing H4 cells, inhibition of Forskolin-stimulated cAMP; read-out: SSTR4 agonism EC50
Sequence of human Somatostatin 4 receptor (SSTR4) (P31391 whole entry): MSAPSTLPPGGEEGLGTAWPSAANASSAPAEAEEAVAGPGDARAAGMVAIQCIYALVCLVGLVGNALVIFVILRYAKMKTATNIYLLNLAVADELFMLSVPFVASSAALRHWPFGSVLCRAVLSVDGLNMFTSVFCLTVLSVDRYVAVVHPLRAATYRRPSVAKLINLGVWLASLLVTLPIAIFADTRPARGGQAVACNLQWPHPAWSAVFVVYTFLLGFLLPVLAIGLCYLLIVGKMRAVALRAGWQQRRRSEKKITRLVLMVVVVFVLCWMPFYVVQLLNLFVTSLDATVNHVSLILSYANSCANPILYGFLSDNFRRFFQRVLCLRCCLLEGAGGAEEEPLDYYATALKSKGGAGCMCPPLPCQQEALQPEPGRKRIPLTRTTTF
Protocol: Method description for cAMP assay with human Somatostatin 4 receptor.
The activation of the SSTR4 receptor (Gi coupled) causes an inhibition of intracellular cAMP after stimulation with Forskolin, which can be quantifiable by use of a suitable assay Kit and an adequate plate reader. This technique is used to characterize pharmacological effects of the SSTR4 receptor agonists by use of hSSTR4 expressing H4 cells.
Compounds are dissolved and diluted in DMSO. The final test solution contains […]. The cAMP standard (Lance cAMP 384 Kit; PerkinElmer, Cat #AD0264) is prepared in assay buffer (HBSS with 0.1% BSA, 5 mM HEPES, […], pH 7.4) containing 1% DMSO and the cAMP standard curve is included at least on one plate. Cells are centrifuged and suspended in assay buffer (incl. 1:100 diluted Alexa antibody).
For the assay 5 μl of a cell suspension (approximately 5000 cells/well)—incl. Alexa antibody (diluted 1:100) are added into a 384 well MTP microtitre plate excepting one row or column (depending on the plate layout), which is reserved for the standard curve. Then 2 μl of compound sample is added as concentration response curve (e.g. 1e-5 M to 6e-10 M), usually in triplicates. Each assay contains incubations with vehicle controls instead of compound as controls for non-inhibited cAMP generation (100% CTL; ‘high values’) and incubations with 1 μM Somatosatin as controls for full inhibition and background (0% CTL; ‘low values’). After approximately 10-15 min incubation time 3 μl Forskolin (dissolved in DMSO, final conc. 15 μM) is added. Then the plates are shaken briefly and incubated for 60 min at room temperature. After 60 min 10 μl of the detection mix is added into all wells followed by an additional incubation period of 1 h. The plates are read in a suitable plate reader.
The analysis of the data is based on the “ratio” of the time-resolved fluorescence measurements of donor and acceptor fluorophore (Ex: 320 nm; Em1: 665 nm; Em2: 615 nm; ratio 665/615). From this ratio, cAMP concentrations are calculated from standard curve and the EC50 is estimated by least square curve fit program.

human SSTR4 = human SSTR4 (Homo sapiens (Human), UniProt P31391); assay: Radioligand binding assay, human SSTR4
Sequence of human SSTR4 (P31391 whole entry): as above
Description: (§1) Radioligand Binding Assays
(§2) Method description for binding assays with human Somatostatin receptors by use of CHO cell membranes expressing recombinant human SSTR1 or human SSTR2 or human SSTR3 or human SSTR4 or human SSTR5
(§3) Receptor binding assays refer to a technique in which labeled receptor ligands are used to detect binding to a receptor. In competition experiments test compounds, which are not labeled, compete with the binding side of a labeled ligand. The displacement of the labeled ligand by the test compound leads to a decreased signal.
(§4) For the binding experiments 200 μL of membrane homogenate from one of the following protein amounts is used: hSSTR1 (40 μg/well); hSSTR2 (25 μg/well); hSSTR3 (1.5 μg/well); hSSTR4 (0.5 μg/well); hSSTR5 (25 μg/well). The homogenate is incubated with 0.05 nM of radioligand ([3-125I-Tyr]-Somatostatin-(1-14)) in addition to increasing concentrations of a test compound or vehicle (100% binding) in a total volume of 250 μL using a Hepes buffer (10 mM, EDTA 1 mM, MgCl2 5 mM, pH7.6, BSA 0.5%, Bacitracin 0.003%, DMSO 1% for 180 min at room temperature. The incubation is terminated by filtration with ice cold NaCl 0.9% through polyethyleneimine treated (0.3%) GF/B glass fiber filters using a cell harvester. The protein-bound radioactivity is measured in a suitable reader. The non-specific binding is defined as radioactivity bound in the presence of 1 μM Somatostatin-14 during the incubation period.
(§5) The analysis of the concentration-binding curves is performed by computer-assisted nonlinear least square curve fitting method using the model of one receptor binding site.

human SSTR1 = human SSTR1 (Homo sapiens (Human), UniProt P30872); assay: Radioligand binding assay, human SSTR1
Sequence of human SSTR1 (P30872 whole entry): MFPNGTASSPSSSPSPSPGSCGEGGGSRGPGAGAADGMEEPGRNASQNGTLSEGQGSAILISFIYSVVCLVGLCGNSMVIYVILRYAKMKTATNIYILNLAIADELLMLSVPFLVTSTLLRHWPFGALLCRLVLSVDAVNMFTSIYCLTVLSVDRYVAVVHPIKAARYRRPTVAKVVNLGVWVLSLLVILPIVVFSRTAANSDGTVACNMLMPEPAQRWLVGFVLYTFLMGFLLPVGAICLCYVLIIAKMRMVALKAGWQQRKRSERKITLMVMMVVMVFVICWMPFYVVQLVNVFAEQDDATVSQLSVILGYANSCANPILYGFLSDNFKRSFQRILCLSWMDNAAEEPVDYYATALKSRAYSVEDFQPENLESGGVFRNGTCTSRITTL
Description: as §1, §2, §3, §4, §5

human SSTR2 = human SSTR2 (Homo sapiens (Human), UniProt P30874); assay: Radioligand binding assay, human SSTR2
Sequence of human SSTR2 (P30874 whole entry): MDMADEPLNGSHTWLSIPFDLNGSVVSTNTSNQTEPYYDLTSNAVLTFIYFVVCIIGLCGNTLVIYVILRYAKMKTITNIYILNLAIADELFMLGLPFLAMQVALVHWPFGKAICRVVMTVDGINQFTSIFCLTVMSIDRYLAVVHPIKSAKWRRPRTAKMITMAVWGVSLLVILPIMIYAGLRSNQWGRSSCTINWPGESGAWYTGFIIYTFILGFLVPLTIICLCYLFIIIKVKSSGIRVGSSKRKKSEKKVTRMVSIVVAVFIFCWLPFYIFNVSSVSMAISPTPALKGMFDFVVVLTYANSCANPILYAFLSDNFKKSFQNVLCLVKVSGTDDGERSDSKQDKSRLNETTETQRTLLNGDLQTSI
Description: as §1, §2, §3, §4, §5

[2] = Metabolic stability in human liver microsomes; type: in vitro ADME; settings: pooled human liver microsomes, 37° C., 1 μM test compound, NADPH; for half-life at 1 μM: pH 7.6, read-out: Half-life t1/2
Protocol: The metabolic stability of the compounds according to the invention may be investigated as follows:
The metabolic degradation of the test compound is assayed at 37° C. with pooled human liver microsomes. The final incubation volume of 100 μl per time point contains TRIS buffer pH 7.6 at room temperature (0.1 M), magnesium chloride (5 mM), microsomal protein (1 mg/mL) and the test compound at a final concentration of 1 μM. Following a short preincubation period at 37° C., the reactions are initiated by addition of beta-nicotinamide adenine dinucleotide phosphate, reduced form (NADPH, 1 mM), and terminated by transferring an aliquot into solvent after different time points. After centrifugation (10000 g, 5 min), an aliquot of the supernatant is assayed by LC-MS/MS for the amount of parent compound. The half-life is determined by the slope of the semi-logarithmic plot of the concentration-time profile.

human SSTR5 = human SSTR5 (Homo sapiens (Human), UniProt P35346); assay: Radioligand binding assay, human SSTR5
Sequence of human SSTR5 (P35346 whole entry): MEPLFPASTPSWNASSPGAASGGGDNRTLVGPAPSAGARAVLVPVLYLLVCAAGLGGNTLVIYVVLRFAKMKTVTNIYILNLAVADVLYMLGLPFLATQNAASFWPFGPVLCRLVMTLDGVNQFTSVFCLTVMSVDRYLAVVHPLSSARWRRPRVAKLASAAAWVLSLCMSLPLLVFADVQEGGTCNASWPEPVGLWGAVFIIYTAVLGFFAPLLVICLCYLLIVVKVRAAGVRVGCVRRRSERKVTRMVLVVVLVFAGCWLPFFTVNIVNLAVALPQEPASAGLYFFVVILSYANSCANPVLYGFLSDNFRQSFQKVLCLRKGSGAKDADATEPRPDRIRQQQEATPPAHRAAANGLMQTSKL
Description: as §1, §2, §3, §4, §5

human SSTR3 = human SSTR3 (Homo sapiens (Human), UniProt P32745); assay: Radioligand binding assay, human SSTR3
Sequence of human SSTR3 (P32745 whole entry): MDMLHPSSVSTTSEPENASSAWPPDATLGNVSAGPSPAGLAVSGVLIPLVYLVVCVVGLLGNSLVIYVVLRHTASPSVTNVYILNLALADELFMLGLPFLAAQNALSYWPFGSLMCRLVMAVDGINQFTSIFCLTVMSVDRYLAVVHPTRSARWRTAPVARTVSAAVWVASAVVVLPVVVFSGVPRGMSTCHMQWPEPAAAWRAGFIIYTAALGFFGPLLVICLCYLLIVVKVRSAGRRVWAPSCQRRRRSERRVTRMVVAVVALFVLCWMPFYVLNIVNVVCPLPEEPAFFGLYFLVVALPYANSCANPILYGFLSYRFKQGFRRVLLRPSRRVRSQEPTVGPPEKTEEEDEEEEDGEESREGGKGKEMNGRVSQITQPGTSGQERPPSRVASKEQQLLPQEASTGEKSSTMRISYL
Description: as §1, §2, §3, §4, §5

Structure (SMILES)	EC50 [1]	Ki (human SSTR4)	Ki (human SSTR1)	Ki (human SSTR2)	half-life at 1 μM [2]	Ki (human SSTR5)	Ki (human SSTR3)	Half-life t1/2 [2]
Cn1nc(C(C)(C)NC(=O)c2ccnc3c2OCCNC3)c2ccccc21 [Example 20]	0.0175 µM	0.574 µM	9.45 µM	9.6 µM	> 2.17 h	9.75 µM	8.62 µM	
CC(C)(NC(=O)c1cccc2c1OCCNC2)c1ccnc2ccccc12 [Example 6]	0.0084 µM	0.104 µM	9.01 µM	9.63 µM		9.86 µM	8.71 µM	2.17 h
Cn1nc(C(C)(C)NC(=O)c2cccc3c2OCCNC3)c2ccccc21 [Example 18]	0.0044 µM	0.0395 µM	7.82 µM	9.63 µM	1.22 h	9.86 µM	8.71 µM	
Cc1nnc(C(C)(C)NC(=O)c2cccc3c2OCCNC3)c2ccccc12 [Example 26]	0.0025 µM	0.065 µM	9.45 µM	9.6 µM	> 2.17 h	9.75 µM	8.62 µM	
CC(C)(NC(=O)c1cccc2c1OCCNC2)c1cccc2ccccc12 [Example 7]	0.0014 µM				0.533 h			
Cn1nc(C(C)(C)NC(=O)c2nccc3c2OCCNC3)c2ccccc21 [Example 19]	0.0146 µM	0.613 µM	9.45 µM	9.6 µM		9.75 µM	8.62 µM	2.17 h

Continued, values first:

EC50 [1]	Ki (human SSTR4)	Ki (human SSTR1)	Ki (human SSTR2)	half-life at 1 μM [2]	Ki (human SSTR5)	Ki (human SSTR3)	Half-life t1/2 [2]	Structure (SMILES)
0.0008 µM	0.0217 µM	9.45 µM	9.6 µM	1.65 h	9.75 µM	8.62 µM		Cc1cccc2c(C(C)(C)NC(=O)c3cccc4c3OCCNC4)n[nH]c12 [Example 33]
0.0158 µM	0.532 µM	9.45 µM	9.6 µM	> 2.17 h	9.75 µM	8.62 µM		Cc1cccc2c(C(C)(C)NC(=O)c3cncc4c3OCCNC4)nn(C)c12 [Example 42]
0.002 µM	0.0532 µM	9.01 µM	9.63 µM	> 2.17 h	9.86 µM	8.71 µM		Cc1cccn2c(C(C)(C)NC(=O)c3cccc4c3OCCNC4)ncc12 [Example 47]
0.0017 µM				1.42 h				CC(C)(NC(=O)c1cccc2c1OCCNC2)c1ncc2c(Cl)cccn12 [Example 48]
0.0183 µM				> 2.17 h				Cc1cccc2c(C(C)(C)NC(=O)c3ccnc4c3OCCNC4)nn(C)c12 [Example 41]
0.004 µM				0.533 h				Cc1cccn2c(C(C)(C)NC(=O)c3cccc4c3OCCNC4)nc(C3CC3)c12 [Example 62]
0.0104 µM				> 2.17 h				Cc1cccn2c(C(C)(C)NC(=O)c3nccc4c3OCCNC4)nc(C)c12 [Example 75]
0.002 µM				1.38 h				Cc1nc(C(C)(C)NC(=O)c2cccc3c2OCCNC3)n2cccc(F)c12 [Example 50]
0.0021 µM	0.0291 µM	9.01 µM	9.63 µM	0.85 h	9.86 µM	8.71 µM		Cn1nc(C(C)(C)NC(=O)c2cccc3c2OCCNC3)c2cccc(F)c21 [Example 39]
